Columns and labels:
[1] = system: Nkx2.5/Csx and GATA4 co-forced expressing bone marrow cells (BMSC-Nkx2.5-GATA4); assay: Differentiation of BMSC-Nkx2.5-GATA4 with cytokines, phase-contrast microscope; format: cell-based, mouse; conditions: BMSC-Nkx2.5-GATA4, 5-aza-C 3 μM in all dishes; cytokine 10 ng/ml; four weeks
Description: The Nkx2.5/Csx and GATA4 co-forced expressing bone marrow cells (BMSC-Nkx2.5-GATA4) having the potential to differentiate into cardiomyocytes were plated into a 60-mm culture dish at a density of 2×10^4 cells/ml and cultured at 33° C. in a 5% CO2-incubator.
On the next day, 5-aza-C was added to the culture medium to give a final concentration of 3 μM. Furthermore, 5 treatments differing from each other were carried out by adding FGF-8 to give a final concentration of 10 ng/ml (culture dish I); adding ET-1 to give a final concentration of 10 ng/ml (culture dish J); adding midkine to give a final concentration of 10 ng/ml (culture dish K); adding BMP4 to give a final concentration of 10 ng/ml (culture dish L); and adding nothing (culture dish M), followed by culturing.
On the next day, the medium was replaced with a fresh medium to eliminate 5-aza-C. Then, FGF-8 was added to the culture dish I to give a final concentration of 10 ng/ml; ET-1 was added to the culture dish J to give a final concentration of 10 ng/ml; midkine was added to the culture dish K to give a final concentration of 10 ng/ml; and BMP4 was added to the culture dish L to give a final concentration of 10 ng/ml, followed by culturing. Two and four days thereafter, furthermore, the medium was replaced, and the FGF-8, ET-1, midkine or BMP4 was added.
As a result, about 30% of the cells in the culture dish containing 5-aza-C alone were converted into myotubes, while about 50% of the cells in the culture dishes containing FGF-8, ET-1, midkine or BMP4 differentiated into myotubes respectively. On the other hand, the addition of FGF-8, ET-1, midkine or BMP4 caused no increase in beating cardiomyocytes.

[2] = system: mouse bone marrow-derived pluripotent stem cells (BMSC); assay: Differentiation of BMSC into myotubes, phase-contrast microscope; format: cell-based; conditions: 5-aza-C 3 μM in all dishes
Description: The mouse bone marrow-derived pluripotent stem cells (BMSC) having the potential to differentiate into cardiomyocytes were plated into 60-mm culture dishes and 60 mm fibronectin-coated dishes (Becton Dickinson) at a density of 2×10^4 cells/ml and cultured at 33° C. in a 5% CO2-incubator.
On the next day, 5-aza-C was added to each culture medium in a final concentration of 3 μM, followed by culturing with the following 3 different treatments, with addition of PDGF (culture dish A), both PDGF and retinoic acid (culture dish B) or without addition of any compound (culture dish C) (final concentration: PDGF, 10 ng/ml; retinoic acid, 10^−9 M).
On the next day, the medium was replaced with a fresh medium to remove 5-aza-C therefrom. Then, PDGF was added to the culture dish A until the final concentration of PDGF came to be 10 ng/ml, while PDGF and retinoic acid were added to the culture dish B until the final concentrations of PDGF and retinoic acid came to be 10 ng/ml and 10^−9 M, respectively. Two and four days thereafter, the medium was replaced and the PDGF or retinoic acid was further added.
As a result, about 30% of the cells in the culture dish containing 5-aza-C alone differentiated into myotubes, while about 40% of the cells in the culture dish containing PDGF and about 50% of the cells in the culture dish containing PDGF together with retinoic acid differentiated into myotubes. In the three groups of the fibronectin-coated dishes, the ratio of the cells differentiated into myotubes was about 10% higher than in the three groups of the culture dishes.
(§1) RNAs were collected from the myotubes thus obtained. And genes expressed in the myotubes were analyzed with quantitative PCR analysis using the synthetic oligonucleotides represented by SEQ ID NOS:71 to 78. As a result, PDGF or retinoic acid promoted the expression of MyoD and fTnI genes relating to a skeletal muscle but not cTnI or ANP specifically relating to a myocardium. Next, mouse bone marrow-derived pluripotent stem cells (BMSC) having the potential to differentiate into cardiomyocytes were inoculated in a 60-mm culture dish at a density of 2×10^4 cells/ml and cultured using an incubator at 33° C. under 5% of CO2.
On the next day, 5-aza-C was added to the liquid culture medium to give a final concentration of 3 μM. Furthermore, five treatments differing from each other were performed by adding FGF-8 to give a final concentration of 10 ng/ml (culture dish D); adding ET-1 to give a final concentration of 10 ng/ml (culture dish E); adding a midkine to give a final concentration of 10 ng/ml (Culture dish F); adding BMP4 to give a final concentration of 10 ng/ml (culture dish G); and adding no compound (culture dish H), followed by culturing.
On the next day, the medium was replaced by a fresh medium to eliminate 5-aza-C therefrom. Then, FGF-8 was added to the culture dish D to give a final concentration of 10 ng/ml; ET-1 was added to the culture dish E to give a final concentration of 10 ng/ml; the midkine was added to the culture dish F to give a final concentration of 10 ng/ml; and BMP4 was added to the culture dish G to give a final concentration of 10 ng/ml, followed by culturing. Two and four days thereafter, the medium was replaced and the FGF-8, ET-1, midkine or BMP4 was further added.
As a result, about 30% of the cells in the culture dish containing 5-aza-C alone differentiated into myotubes, while about 50% of the cells in the culture dishes containing FGF-8, ET-1, midkine or BMP4 differentiated into myotubes respectively.

KUM2 cells = assay: Induction of spontaneously beating cardiomyocytes in KUM2 cells by 5-aza-C; format: cell-based, mouse; conditions: 5-aza-C 3 μM for 24 hours
Description: After culturing for about 4 months under the above conditions, immortalized cells were selected and diluted to establish 192 cell lines respectively derived from single cells (hereinafter referred to as bone marrow-derived first passage immortalized cell lines). To each of these clone-derived cell lines was added 5-aza-C at a final concentration of 3 μM, and the cells were cultured for 24 hours. After culturing for further 2 weeks in IMDM, clones that produced spontaneously beating cells were selected. […] One of three cell lines is KUM2. Hereinafter, unless otherwise indicated, the bone marrow cell KUM2 and mouse bone marrow-derived pluripotent stem cells (BMSC) described below were cultured in IMDM supplemented with 20% FCS, […] penicillin, 250 ng/ml streptomycin and […] amphotericin at 33° C. using a 5% CO2-incubator. When the KUM2 cells were exposed to 5-aza-C having a final concentration of 3 μM for 24 hours, nonspecific differentiation into spontaneously beating cardiomyocytes was induced. However, the frequency is very low (one or less per 10^7 cells).

[3] = system: mouse bone marrow-derived pluripotent stem cells (BMSC); assay: Induction of differentiation of BMSC into cardiomyocytes using DMSO; format: cell-based; conditions: then 6 weeks
Description: According to the method described in Example 1, mouse bone marrow-derived pluripotent stem cells (BMSC) having the potential to differentiate into cardiomyocytes were obtained and cultured for 24 hours in the presence of 10 μM DMSO instead of 3 μM 5-aza-C. The medium was replaced with IMDM, followed by culturing for 6 weeks.

Bone marrow cells (BMSC) = assay: Induction of adipocytes from BMSC by PPAR-γ receptor agonists; format: cell-based, mouse
Description: Bone marrow cells (BMSC) having the potential to differentiate into cardiomyocytes can be induced to differentiate not only into cardiomyocytes but also into adipocytes. To control the differentiation into adipocytes, the conditions for the induction of the differentiation were examined. First, the expression of PPAR-y receptors was analyzed by the quantitative PCR method. […] Subsequently, PPAR-γ receptor agonists, pioglitazone and troglitazone, were added at various concentrations to bone marrow cells (BMSC) having the potential to differentiate into cardiomyocytes.

[4] = system: mouse bone marrow-derived pluripotent stem cells (BMSC); assay: Quantitative PCR of genes expressed in myotubes from BMSC; format: cell-based; conditions: with 5-aza-C 3 μM; for expression of cTnI or ANP specifically relating to a myocardium: PDGF 10 ng/ml, retinoic acid 10^−9 M
Description: as §1
RNAs were collected from the myotubes thus obtained. And genes expressed in the myotubes were analyzed with quantitative PCR using the synthetic oligonucleotides represented by SEQ ID NOS:71 to 78. As a result, the FGF-8, ET-1, midkine and BMP4 each individually promoted the expression of cTnI and ANP gene which are myocardium-specific genes.

[5] = culture dishes, PDGF 10 ng/ml, retinoic acid 10^−9 M, four weeks

## Nc1ncn([C@@H]2O[C@H](CO)[C@@H](O)[C@H]2O)c(=O)n1 [5-aza-C, 5-azacytidine, reference compound]
[1]
  cells differentiated into myotubes: about 30%
[2]; cytokine 10 ng/ml, four weeks after addition of 5-aza-C
  cells differentiated into myotubes: about 30%
[2]; [5]
  cells differentiated into myotubes: about 30%
KUM2 cells
  frequency of differentiation into spontaneously beating cardiomyocytes: one or less

## C[S+](C)[O-] [DMSO, dimethyl sulfoxide]
[3]; 10 μM DMSO for 24 hours instead of 5-aza-C
  differentiation into beating cardiomyocytes: induced to differentiate into beating cardiomyocytes
[3]; 10 μM DMSO for 24 hours
  expression of Nkx2.5/Csx and GATA4 genes in produced cells: expressed

## CCc1ccc(CCOc2ccc(CC3SC(=O)NC3=O)cc2)nc1 (stereo not drawn) [pioglitazone]
Bone marrow cells (BMSC); 0.4 μM
  BMSCs differentiated into adipocytes: about 50%
Bone marrow cells (BMSC); 2 μM
  BMSCs differentiated into adipocytes: ~100%

## CC1=C(/C=C/C(C)=C/C=C/C(C)=C/C(=O)O)C(C)(C)CCC1 [retinoic acid, all trans retinoic acid, reference compound]
[4]
  expression of MyoD and fTnI genes relating to a skeletal muscle: promoted
  expression of cTnI or ANP specifically relating to a myocardium: not

## Cc1c(C)c2c(c(C)c1O)CCC(C)(COc1ccc(CC3SC(=O)NC3=O)cc1)O2 (stereo not drawn) [troglitazone]
Bone marrow cells (BMSC); 0.4 μM
  BMSCs differentiated into adipocytes: about 50%
Bone marrow cells (BMSC); 2 μM
  BMSCs differentiated into adipocytes: ~100%

## PDGF
[4]
  expression of MyoD and fTnI genes relating to a skeletal muscle: promoted
  expression of cTnI or ANP specifically relating to a myocardium: not
[2]; [5]
  cells differentiated into myotubes: about 40%

Source: patent US20020142457A1, “Cell having the potentiality of differentiation into cardiomyocytes” (priority 1999, published 2002)
